Laboratory results published in ChEMBL document CHEMBL2150905, “Discovery of Disubstituted Imidazo[4,5-b]pyridines and Purines as Potent TrkA Inhibitors” (ACS Med Chem Lett, 2012).
≈ marks a conversion by molar mass, not a printed value.

How the values were obtained:
in vitro [1] = settings: rat, hepatocytes
Description: Intrinsic clearance in rat hepatocytes assessed per million cells by LC/MS/MS analysis

in vitro [2] = settings: human, plasma
Description: Fraction unbound in human plasma

physchem = settings: buffer
Description: Aqueous solubility of the compound

[3] = Half life in Han Wistar rat at 10 mg/kg, po and 3 mg/kg, iv; assay type: ADME, organism-based; settings: in vivo
[4] = Oral bioavailability in Han Wistar rat at 10 mg/kg; assay type: ADME, organism-based; settings: in vivo
in vivo = settings: Han Wistar, rat, iv, 3 mg/kg
Description: Clearance in Han Wistar rat at 10 mg/kg, po and 3 mg/kg, iv

[5] = biological target: Voltage-gated inwardly rectifying potassium channel KCNH2 (Homo sapiens, UniProt Q12809)
Mus musculus [6] = assay: Toxicity in 3T3 cells overexpressing constitutively active TRKA allografted CrTac:Ncr-Foxn1nu mouse assessed as weight loss at 1 to 25 mg/kg, po BID for 7 days; assay type: organism-based, NIH3T3; parameters: dose 1-25 mg/kg, route oral; settings: in vivo, 168 h
NIH3T3 [7] = assay: animal or person; settings: Mus musculus, NIH3T3, po, 168 h, read-out: TGI
Description: Antitumor activity against 3T3 cells overexpressing constitutively active TRKA allografted in CrTac:Ncr-Foxn1nu mouse assessed as tumor growth inhibition at 1 mg/kg, po BID for 7 days

NIH3T3 [8] = assay: Antitumor activity against 3T3 cells overexpressing constitutively active TRKA allografted in CrTac:Ncr-Foxn1nu mouse assessed as tumor regression at 5 mg/kg, po BID for 7 days; assay type: functional
NIH3T3 [9] = assay: Antitumor activity against 3T3 cells overexpressing constitutively active TRKA allografted in CrTac:Ncr-Foxn1nu mouse assessed as tumor growth delay time at 25 mg/kg, po BID for 7 days; assay type: functional
NIH3T3 [10] = assay: Antitumor activity against 3T3 cells overexpressing constitutively active TRKA allografted in CrTac:Ncr-Foxn1nu mouse assessed as tumor regression at 25 mg/kg, po BID for 7 days; assay type: functional
[11] = Half life in beagle dog at 10 mg/kg, po and 2 mg/kg, iv; assay type: ADME, organism-based, Canis lupus familiaris; settings: in vivo
[12] = Clearance in beagle dog at 10 mg/kg, po and 2 mg/kg, iv; assay type: ADME, organism-based, Canis lupus familiaris; settings: in vivo
NIH3T3 [13] = assay: Antitumor activity against 3T3 cells overexpressing constitutively active TRKA allografted in CrTac:Ncr-Foxn1nu mouse assessed as tumor stasis at 5 mg/kg, po BID for 7 days; assay type: functional
Mus musculus [14] = assay: Toxicity in 3T3 cells overexpressing constitutively active TRKA allografted CrTac:Ncr-Foxn1nu mouse assessed as weight loss at 1 to 5 mg/kg, po BID for 7 days; assay type: organism-based, NIH3T3; parameters: dose 1-5 mg/kg, route oral; settings: in vivo, 168 h
[15] = Oral bioavailability in beagle dog at 10 mg/kg; assay type: ADME, organism-based, Canis lupus familiaris; settings: in vivo
[16] = biological target: T1, Proto-oncogene tyrosine-protein kinase Src (Homo sapiens, UniProt P12931); assay: Inhibition of cSrc at 10 uM
[17] = biological target: Receptor-type tyrosine-protein kinase FLT3 (Homo sapiens) (UniProt P36888); assay: Inhibition of Flt3 at 10 uM
[18] = biological target: T2, Serine/threonine-protein kinase SIK1 (Homo sapiens, UniProt P57059); assay: Inhibition of SIK at 10 uM
[19] = biological target: T3, ALK tyrosine kinase receptor (Homo sapiens, UniProt Q9UM73); assay: Inhibition of ALK
[20] = biological target: T4, Tyrosine-protein kinase JAK2 (Homo sapiens, UniProt O60674); assay: Inhibition of JAK2 at 10 uM
[21] = biological target: T5, Fibroblast growth factor receptor 1 (Homo sapiens, UniProt P11362); assay: Inhibition of FGFR1
Focal adhesion kinase 1 [22] = biological target: T6, Focal adhesion kinase 1 (Homo sapiens, UniProt Q05397); assay: Inhibition of FAK
[23] = biological target: T7, Mitogen-activated protein kinase kinase kinase 9 (Homo sapiens, UniProt P80192); assay: Inhibition of MLK1
[24] = biological target: T8, Vascular endothelial growth factor receptor 3 (Homo sapiens, UniProt P35916); assay: Inhibition of FLT4 at 10 uM
[25] = biological target: T3, ALK tyrosine kinase receptor; assay: Inhibition of ALK at 10 uM
[26] = biological target: T5, Fibroblast growth factor receptor 1; assay: Inhibition of FGFR1 at 10 uM
[27] = biological target: T9, Tyrosine-protein kinase ABL1 (Homo sapiens, UniProt P00519); settings: 10 uM
Description: Inhibition of Abl at 10 uM

[28] = biological target: T2, Serine/threonine-protein kinase SIK1; assay: Inhibition of SIK
[29] = biological target: T10, High affinity nerve growth factor receptor (Homo sapiens, UniProt P04629); settings: 10 uM
Description: Inhibition of TrkA at 10 uM

Focal adhesion kinase 1 [30] = biological target: T6, Focal adhesion kinase 1; assay: Inhibition of FAK at 10 uM
[31] = biological target: Receptor-type tyrosine-protein kinase FLT3 (Homo sapiens, UniProt P36888); assay: Inhibition of Flt3
[32] = biological target: Testis-specific serine/threonine-protein kinase 2 (Homo sapiens, UniProt Q96PF2); assay: Inhibition of TSSK2
[33] = biological target: T11, Serine/threonine-protein kinase WNK3 (Homo sapiens, UniProt Q9BYP7); settings: 10 uM
Description: Inhibition of WNK3 at 10 uM

[34] = biological target: Proto-oncogene tyrosine-protein kinase receptor Ret (Homo sapiens, UniProt P07949); assay: Inhibition of Ret
[35] = biological target: T10, High affinity nerve growth factor receptor; assay: Inhibition of TrkA
[36] = biological target: Phosphorylase b kinase gamma catalytic chain, liver/testis isoform (Homo sapiens) (UniProt P15735); assay: Inhibition of PhKg2 at 10 uM
[37] = biological target: T12, Tyrosine-protein kinase Fgr (Homo sapiens, UniProt P09769); assay: Inhibition of Fgr at 10 uM
[38] = biological target: T8, Vascular endothelial growth factor receptor 3; assay: Inhibition of FLT4
[39] = biological target: T13, Tyrosine-protein kinase BTK (Homo sapiens, UniProt Q06187); assay: Inhibition of BTK
[40] = biological target: BDNF/NT-3 growth factors receptor (Homo sapiens, UniProt Q16620); assay: Inhibition of TrkB
[41] = biological target: Muscle, skeletal receptor tyrosine-protein kinase (Homo sapiens, UniProt O15146); assay: Inhibition of MuSk
[42] = biological target: T11, Serine/threonine-protein kinase WNK3; assay: Inhibition of WNK3
[43] = biological target: T9, Tyrosine-protein kinase ABL1; assay: Inhibition of Abl
[44] = biological target: T7, Mitogen-activated protein kinase kinase kinase 9; assay: Inhibition of MLK1 at 10 uM
[45] = biological target: Tyrosine-protein kinase Lck (Homo sapiens, UniProt P06239); assay: Inhibition of Lck
[46] = biological target: T14, Mitogen-activated protein kinase 14 (Homo sapiens, UniProt Q16539); assay: Inhibition of SAPK2a at 10 uM
[47] = biological target: Phosphorylase b kinase gamma catalytic chain, liver/testis isoform (Homo sapiens, UniProt P15735); assay: Inhibition of PhKg2
[48] = biological target: Tyrosine-protein kinase ITK/TSK (Homo sapiens, UniProt Q08881); assay: Inhibition of Itk
[49] = biological target: Testis-specific serine/threonine-protein kinase 2 (Homo sapiens) (UniProt Q96PF2); settings: 10 uM
Description: Inhibition of TSSK2 at 10 uM

[50] = biological target: T14, Mitogen-activated protein kinase 14; assay: Inhibition of SAPK2a
[51] = biological target: T1, Proto-oncogene tyrosine-protein kinase Src; assay: Inhibition of cSrc
[52] = biological target: T13, Tyrosine-protein kinase BTK; assay: Inhibition of BTK at 10 uM
[53] = biological target: Tyrosine-protein kinase ITK/TSK (Homo sapiens) (UniProt Q08881); assay: Inhibition of Itk at 10 uM
[54] = biological target: T4, Tyrosine-protein kinase JAK2; assay: Inhibition of JAK2
[55] = biological target: T12, Tyrosine-protein kinase Fgr; assay: Inhibition of Fgr

Chain of Voltage-gated inwardly rectifying potassium channel KCNH2 (Q12809 whole entry): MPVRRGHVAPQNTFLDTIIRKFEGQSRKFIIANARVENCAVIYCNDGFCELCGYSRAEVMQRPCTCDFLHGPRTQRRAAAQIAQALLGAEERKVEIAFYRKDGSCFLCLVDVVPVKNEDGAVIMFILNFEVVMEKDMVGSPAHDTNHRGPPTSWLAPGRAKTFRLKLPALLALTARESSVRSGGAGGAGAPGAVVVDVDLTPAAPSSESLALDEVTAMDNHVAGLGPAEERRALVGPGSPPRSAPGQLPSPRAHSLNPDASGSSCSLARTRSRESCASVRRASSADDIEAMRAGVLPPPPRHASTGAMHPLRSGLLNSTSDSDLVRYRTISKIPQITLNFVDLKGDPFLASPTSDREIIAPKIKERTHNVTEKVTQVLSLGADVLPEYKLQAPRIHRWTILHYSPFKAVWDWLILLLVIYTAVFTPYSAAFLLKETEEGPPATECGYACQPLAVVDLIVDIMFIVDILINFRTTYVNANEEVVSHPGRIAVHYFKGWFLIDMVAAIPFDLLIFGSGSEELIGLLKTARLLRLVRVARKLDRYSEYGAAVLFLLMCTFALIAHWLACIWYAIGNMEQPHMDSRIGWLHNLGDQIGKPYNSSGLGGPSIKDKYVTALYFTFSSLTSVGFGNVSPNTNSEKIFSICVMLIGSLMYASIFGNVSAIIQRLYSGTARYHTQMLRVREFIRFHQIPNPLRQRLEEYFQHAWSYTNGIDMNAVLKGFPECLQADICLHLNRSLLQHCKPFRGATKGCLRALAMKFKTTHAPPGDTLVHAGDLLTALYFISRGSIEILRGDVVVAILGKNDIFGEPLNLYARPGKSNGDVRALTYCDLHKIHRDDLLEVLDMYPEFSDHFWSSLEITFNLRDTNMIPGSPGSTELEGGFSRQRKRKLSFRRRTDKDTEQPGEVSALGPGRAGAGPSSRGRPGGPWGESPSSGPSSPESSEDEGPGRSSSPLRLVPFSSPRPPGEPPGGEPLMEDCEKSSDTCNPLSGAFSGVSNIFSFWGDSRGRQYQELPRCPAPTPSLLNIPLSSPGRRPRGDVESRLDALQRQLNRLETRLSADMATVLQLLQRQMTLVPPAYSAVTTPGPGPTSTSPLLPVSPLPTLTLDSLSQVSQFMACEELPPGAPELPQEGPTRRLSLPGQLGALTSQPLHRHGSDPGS
T4 sequence (O60674 whole entry): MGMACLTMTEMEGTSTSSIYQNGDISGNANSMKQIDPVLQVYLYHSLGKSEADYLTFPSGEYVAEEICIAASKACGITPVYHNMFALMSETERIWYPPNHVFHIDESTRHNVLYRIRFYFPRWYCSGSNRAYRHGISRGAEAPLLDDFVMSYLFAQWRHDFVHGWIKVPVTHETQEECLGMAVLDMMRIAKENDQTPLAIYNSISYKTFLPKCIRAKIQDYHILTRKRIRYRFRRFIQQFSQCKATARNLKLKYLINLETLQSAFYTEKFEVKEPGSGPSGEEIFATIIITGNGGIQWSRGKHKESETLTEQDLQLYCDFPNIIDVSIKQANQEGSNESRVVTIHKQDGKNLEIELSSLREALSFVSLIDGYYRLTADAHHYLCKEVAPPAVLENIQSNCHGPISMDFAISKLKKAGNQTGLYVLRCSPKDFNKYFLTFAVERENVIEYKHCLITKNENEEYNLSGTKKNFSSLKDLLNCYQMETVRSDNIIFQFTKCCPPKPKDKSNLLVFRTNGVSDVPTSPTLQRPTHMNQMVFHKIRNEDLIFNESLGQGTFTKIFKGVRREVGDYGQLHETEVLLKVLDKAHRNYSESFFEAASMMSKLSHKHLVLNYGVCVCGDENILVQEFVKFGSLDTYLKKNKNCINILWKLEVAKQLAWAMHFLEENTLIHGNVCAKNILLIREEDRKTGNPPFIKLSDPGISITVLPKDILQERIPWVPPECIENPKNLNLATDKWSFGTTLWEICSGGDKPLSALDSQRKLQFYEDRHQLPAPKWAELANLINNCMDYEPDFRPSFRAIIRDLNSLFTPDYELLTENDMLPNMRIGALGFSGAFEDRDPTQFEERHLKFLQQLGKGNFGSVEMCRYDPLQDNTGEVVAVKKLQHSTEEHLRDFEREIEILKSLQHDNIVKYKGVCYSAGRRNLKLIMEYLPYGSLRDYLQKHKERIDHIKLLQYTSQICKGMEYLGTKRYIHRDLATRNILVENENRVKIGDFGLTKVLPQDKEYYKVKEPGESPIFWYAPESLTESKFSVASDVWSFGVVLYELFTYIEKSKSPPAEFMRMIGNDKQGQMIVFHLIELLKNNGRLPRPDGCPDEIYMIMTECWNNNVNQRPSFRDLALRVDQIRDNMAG
T2 sequence (P57059 whole entry): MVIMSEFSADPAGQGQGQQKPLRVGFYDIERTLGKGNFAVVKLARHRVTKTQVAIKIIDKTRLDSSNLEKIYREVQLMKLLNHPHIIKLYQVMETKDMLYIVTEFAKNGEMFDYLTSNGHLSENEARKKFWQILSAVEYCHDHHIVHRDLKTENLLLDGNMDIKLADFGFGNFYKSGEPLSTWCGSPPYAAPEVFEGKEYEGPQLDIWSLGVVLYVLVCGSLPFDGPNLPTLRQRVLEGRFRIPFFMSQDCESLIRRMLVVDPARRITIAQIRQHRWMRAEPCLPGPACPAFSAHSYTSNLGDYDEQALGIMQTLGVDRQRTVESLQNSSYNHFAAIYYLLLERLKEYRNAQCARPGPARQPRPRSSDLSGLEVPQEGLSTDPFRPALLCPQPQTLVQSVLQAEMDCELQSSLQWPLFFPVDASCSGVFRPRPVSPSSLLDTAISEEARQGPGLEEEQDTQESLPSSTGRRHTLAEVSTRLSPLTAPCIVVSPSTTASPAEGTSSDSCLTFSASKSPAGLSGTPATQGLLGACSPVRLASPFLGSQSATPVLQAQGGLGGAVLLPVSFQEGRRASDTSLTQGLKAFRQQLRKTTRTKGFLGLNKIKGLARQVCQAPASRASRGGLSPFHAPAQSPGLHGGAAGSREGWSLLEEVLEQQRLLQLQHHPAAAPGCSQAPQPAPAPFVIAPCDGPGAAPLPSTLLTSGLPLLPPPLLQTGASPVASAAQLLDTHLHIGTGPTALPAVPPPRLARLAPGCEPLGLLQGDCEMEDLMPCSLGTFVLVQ
T1 sequence (P12931 2-536 limits assumed): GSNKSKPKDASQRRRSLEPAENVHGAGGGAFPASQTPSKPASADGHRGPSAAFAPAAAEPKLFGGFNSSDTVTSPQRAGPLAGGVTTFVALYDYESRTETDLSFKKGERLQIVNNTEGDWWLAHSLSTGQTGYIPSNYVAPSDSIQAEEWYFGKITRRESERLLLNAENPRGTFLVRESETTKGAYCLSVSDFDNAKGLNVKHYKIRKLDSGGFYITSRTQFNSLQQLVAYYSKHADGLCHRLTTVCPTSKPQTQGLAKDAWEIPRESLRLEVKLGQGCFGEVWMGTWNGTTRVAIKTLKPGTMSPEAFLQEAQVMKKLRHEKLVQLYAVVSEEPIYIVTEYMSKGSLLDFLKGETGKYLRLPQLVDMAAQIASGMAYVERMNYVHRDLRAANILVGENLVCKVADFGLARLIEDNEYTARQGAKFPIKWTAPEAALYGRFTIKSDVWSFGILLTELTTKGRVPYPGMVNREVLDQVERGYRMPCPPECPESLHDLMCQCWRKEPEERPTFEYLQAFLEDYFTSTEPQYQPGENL
T13 sequence (Q06187 whole entry): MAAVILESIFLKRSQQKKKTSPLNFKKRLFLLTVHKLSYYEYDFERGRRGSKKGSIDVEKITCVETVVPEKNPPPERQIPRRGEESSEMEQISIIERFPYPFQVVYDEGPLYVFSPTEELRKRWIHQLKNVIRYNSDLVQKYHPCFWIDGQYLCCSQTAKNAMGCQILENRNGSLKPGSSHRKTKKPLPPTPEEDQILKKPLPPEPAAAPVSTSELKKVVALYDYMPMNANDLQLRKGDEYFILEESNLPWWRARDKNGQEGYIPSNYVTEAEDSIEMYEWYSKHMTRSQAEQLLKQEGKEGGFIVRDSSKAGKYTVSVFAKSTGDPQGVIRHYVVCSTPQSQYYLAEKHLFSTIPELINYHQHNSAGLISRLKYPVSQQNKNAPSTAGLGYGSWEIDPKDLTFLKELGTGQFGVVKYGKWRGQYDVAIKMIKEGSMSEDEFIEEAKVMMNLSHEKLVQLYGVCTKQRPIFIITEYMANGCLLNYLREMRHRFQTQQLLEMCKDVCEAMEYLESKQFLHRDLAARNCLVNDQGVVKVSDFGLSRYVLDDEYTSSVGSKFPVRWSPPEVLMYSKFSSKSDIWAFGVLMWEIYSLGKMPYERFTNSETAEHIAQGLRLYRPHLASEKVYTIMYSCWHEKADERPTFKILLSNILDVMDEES
T14 sequence (Q16539 whole entry, canonical isoform): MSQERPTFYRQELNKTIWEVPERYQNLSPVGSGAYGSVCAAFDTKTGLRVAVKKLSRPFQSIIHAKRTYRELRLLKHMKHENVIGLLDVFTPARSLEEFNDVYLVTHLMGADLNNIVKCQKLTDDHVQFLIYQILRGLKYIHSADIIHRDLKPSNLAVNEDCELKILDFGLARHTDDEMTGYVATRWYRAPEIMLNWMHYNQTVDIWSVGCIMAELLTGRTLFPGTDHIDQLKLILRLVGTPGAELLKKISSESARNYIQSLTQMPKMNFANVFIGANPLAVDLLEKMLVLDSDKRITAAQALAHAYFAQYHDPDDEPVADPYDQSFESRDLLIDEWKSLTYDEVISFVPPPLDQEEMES
Chain of Testis-specific serine/threonine-protein kinase 2 (Q96PF2 whole entry): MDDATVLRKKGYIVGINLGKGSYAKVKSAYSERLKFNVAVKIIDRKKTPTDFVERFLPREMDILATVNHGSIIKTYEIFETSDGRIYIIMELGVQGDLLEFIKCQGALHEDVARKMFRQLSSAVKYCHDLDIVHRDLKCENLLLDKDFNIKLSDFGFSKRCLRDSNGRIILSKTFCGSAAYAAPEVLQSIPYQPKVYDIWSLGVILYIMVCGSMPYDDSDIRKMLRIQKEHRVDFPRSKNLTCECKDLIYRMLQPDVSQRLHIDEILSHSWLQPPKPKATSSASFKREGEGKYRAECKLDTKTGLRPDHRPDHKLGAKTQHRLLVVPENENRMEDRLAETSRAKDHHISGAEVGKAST

Molecule `C[C@H](Nc1ccc2ncn(-c3cc(C4CC4)[nH]n3)c2n1)c1ncc(F)cn1` has a hepatocyte CLint (in vitro [1]) of 48 µL/min/1e6 cells, a fraction unbound (in vitro [2]) of 0.16 and a solubility (physchem) of 590 µM (≈ 215 µg/mL). It also gave a half-life [3] of 1.2 h, a bioavailability [4] of 33% and a clearance (in vivo) of 39 mL/min/kg.
Work on `COc1cc(Nc2nc3c(cc2F)ncn3[C@@H](CO)c2ccc(F)cn2)n[nH]1` yielded a hepatocyte CLint (in vitro [1]) of 29 µL/min/1e6 cells, a solubility (physchem) of 150 µM (≈ 58.1 µg/mL) and an IC50 [5] of over 32 µM. For the same molecule, the half-life [3] was 3.2 h, the bioavailability [4] was 41% and the clearance (in vivo) was 33 mL/min/kg.
Work on `CC(C)Oc1cc(-n2cnc3cnc(N[C@@H](C)c4ncc(F)cn4)nc32)n[nH]1` yielded a hepatocyte CLint (in vitro [1]) of 24 µL/min/1e6 cells, a fraction unbound (in vitro [2]) of 0.31 and a solubility (physchem) of 480 µM (≈ 184 µg/mL). The IC50 [5] was over 32 µM, the half-life [3] was 3.8 h and the bioavailability [4] was 29%. It also gave a clearance (in vivo) of 130 mL/min/kg.
Molecule `CC(C)Oc1cc(Nc2nc3c(cc2F)ncn3[C@@H](CO)c2ccc(F)cn2)n[nH]1` has an Activity (Mus musculus [6]) of under 5%, an inhibition in vivo at 1 mg/kg (NIH3T3 [7]) of 30% and an Activity (NIH3T3 [8]) of -51%. It also gave a Time (NIH3T3 [9]) of 4 days, a hepatocyte CLint (in vitro [1]) of 31 µL/min/1e6 cells and an Activity (NIH3T3 [10]) of -63%. For the same molecule, the fraction unbound (in vitro [2]) was 0.058, the solubility (physchem) was 220 µM (≈ 91.4 µg/mL) and the half-life [3] was 1.2 h. For the same molecule, the bioavailability [4] was 54% and the clearance (in vivo) was 51 mL/min/kg.
With `CC(C)Oc1cc(-n2cnc3ccc(N[C@@H](CO)c4ccc(F)cn4)nc32)n[nH]1` the half-life [11] was 1 h, the inhibition in vivo at 1 mg/kg (NIH3T3 [7]) was 12% and the hepatocyte CLint (in vitro [1]) was 13 µL/min/1e6 cells. The fraction unbound (in vitro [2]) was 0.081, the clearance [12] was 15.2 mL/min/kg and the solubility (physchem) was 250 µM (≈ 99.4 µg/mL). It also gave an IC50 [5] of 52 µM, an Activity (NIH3T3 [13]) of -47% and a half-life [3] of 2.3 h. The bioavailability [4] was 29%, the Activity (Mus musculus [14]) was under 5% and the bioavailability [15] was 17%. The clearance (in vivo) was 46 mL/min/kg.
In the case of `Cc1cc(-n2cnc3ccc(N[C@@H](C)c4ncc(F)cn4)nc32)n[nH]1`, the fraction unbound (in vitro [2]) is reported as 0.39, the solubility (physchem) is reported as over 1000 µM and the IC50 [5] is reported as over 32 µM. For the same molecule, the half-life [3] was 0.82 h, the bioavailability [4] was 92% and the clearance (in vivo) was 45 mL/min/kg.
In the case of `CC(C)Oc1cc(-n2cnc3ccc(N[C@@H](C)c4ccc(F)cn4)nc32)n[nH]1`, the inhibition [16] is reported as over 30%, the inhibition [17] is reported as over 30% and the inhibition [18] is reported as over 30%. The IC50 [19] was 0.0341 µM, the inhibition [20] was over 30% and the IC50 [21] was 0.0087 µM. It also gave an IC50 (Focal adhesion kinase 1 [22]) of 0.0172 µM, an IC50 [23] of 0.0443 µM and an inhibition [24] of over 30%. For the same molecule, the inhibition [25] was over 30%, the inhibition [26] was over 30% and the inhibition [27] was over 30%. The IC50 [28] was 0.0055 µM, the inhibition [29] was over 30% and the inhibition (Focal adhesion kinase 1 [30]) was over 30%. For the same molecule, the IC50 [31] was 0.0021 µM, the IC50 [32] was 0.0306 µM and the inhibition [33] was over 30%. The hepatocyte CLint (in vitro [1]) was 42 µL/min/1e6 cells, the IC50 [34] was under 0.1 µM and the fraction unbound (in vitro [2]) was 0.06. The IC50 [35] was 0.0014 µM, the inhibition [36] was over 30% and the inhibition [37] was over 30%. It also gave an IC50 [38] of 0.064 µM, an IC50 [39] of 0.0035 µM and an IC50 [40] of under 0.1 µM. It also gave an IC50 [41] of under 0.1 µM, an IC50 [42] of 0.0998 µM and an IC50 [43] of 0.0012 µM. For the same molecule, the inhibition [44] was over 30%, the IC50 [45] was under 0.1 µM and the inhibition [46] was over 30%. The IC50 [47] was 0.0061 µM, the IC50 [48] was 0.0722 µM and the IC50 [5] was over 32 µM. For the same molecule, the inhibition [49] was over 30%, the half-life [3] was 0.97 h and the bioavailability [4] was 6.7%. The IC50 [50] was 0.0134 µM, the IC50 [51] was 0.0182 µM and the inhibition [52] was over 30%. For the same molecule, the inhibition [53] was over 30%, the IC50 [54] was 0.0683 µM and the IC50 [55] was 0.0022 µM. The clearance (in vivo) was 41 mL/min/kg.
